Reference: patent US20110021579A1, “PERITONEUM PROTECTING AGENT” (TOKAI UNIVERSITY EDUCATIONAL SYSTEM, priority 2005, published 2011)

Experiments:
VEGF = VEGF mRNA expression in mesenterium by semiquantitative RT-PCR; format: in vivo, Sprague-Dawley rats; settings: peritoneal tissue, uremic rats with PD plus pyridoxamine, FIG. 7B
Text: (§1) Six-week-old male Sprague-Dawley rats weighing 200±3 g (CLER Japan, Inc., Tokyo) were randomly assigned to: sham-operated control rats (Group 1: n=6); uremic rats without peritoneal dialysis (Group 2: n=12); and uremic rats undergoing peritoneal dialysis (n=24). The uremic rats undergoing peritoneal dialysis were further divided into two groups: a group dialyzed with 4.25% Dianeal (registered trademark) (3.86% glucose, 2.5 mEq/CAPD fluid, Baxter Healthcare Corp., Round Lake; IL, USA) (Group 3: n=12); and a group peritoneally dialyzed with 4.25% Dianeal (registered trademark) containing pyridoxamine (Pridorine, Biostratum Inc., NC, USA) at 5 mg/l (Group 4: n=12). […]
(§2) Expression of VEGF or FGF2 (mesenterium) mRNA was analyzed by using semiquantitative reverse transcriptase-polymerase chain reaction (RT-PCR). […]
(§3) β-actin was used as an internal standard of RNA to enable comparison of RNA levels among different samples. […] The PCR products that were resolved by electrophoresis on a 2% agarose gel and stained using ethidium bromide were quantified by measuring the signal intensity with a quantitation program (NIH image software). The mRNA was determined in triplicate and the results were averaged for each experiment. […] The results were averaged and expressed as means±SD. […]

FGF-2 = FGF-2 mRNA expression in mesenterium by semiquantitative RT-PCR; format: in vivo, Sprague-Dawley rats; settings: peritoneal tissue, uremic rats with PD plus pyridoxamine, FIG. 7C
Text: as §1, §2, §3

[1] = tested on: VEGF, FGF-2, vWF, AGEs, and TGF-β1; experiment: Immunohistochemical analysis of mesenterium tissue sections; format: in vivo, Sprague-Dawley rats; settings: rats treated with pyridoxamine; prominent in uremic rats with PD, FIG. 8
Text: (§4) Six-week-old male Sprague-Dawley rats weighing 200±3 g (CLER Japan, Inc., Tokyo) were randomly assigned to: sham-operated control rats (Group 1: n=6); uremic rats without peritoneal dialysis (Group 2: n=12); and uremic rats undergoing peritoneal dialysis (n=24). The uremic rats undergoing peritoneal dialysis were further divided into two groups: a group dialyzed with 4.25% Dianeal (registered trademark) (3.86% glucose, 2.5 mEq/CAPD fluid, Baxter Healthcare Corp., Round Lake; IL, USA) (Group 3: n=12); and a group peritoneally dialyzed with 4.25% Dianeal (registered trademark) containing pyridoxamine (Pridorine, Biostratum Inc., NC, USA) at 5 mg/l (Group 4: n=12).
Uremic models were generated by 5/6 nephrectomy according to previous reports [Lameire N, et al. Kidney Int 54: 2194-2206, 1998; and Kleinknecht C, et al., Kidney Int 47: S51-S54, 1995]. The animals were provided free access to standard experimental rat chow (CE2: CLER Japan, Inc., Tokyo) containing 1.06% calcium, 0.9% phosphate, and 21% proteins, and tap water until the evening prior to slaughter. […]
(§5) After 6 weeks of PD, 4.25% Dianeal (registered trademark) was injected from the access port and a peritoneal equilibration test (60 minutes) was performed. […] Mesenterium was excised and assessed by light microscopy or immunohistochemistry. […]

[2] = tested on: pentosidine (AGE and carbonyl stress marker); experiment: Pentosidine content in peritoneal membrane by HPLC; format: in vivo, Sprague-Dawley rats
Text: as §4
(§6) Uremic models were generated by 5/6 nephrectomy according to previous reports [Lameire N, et al. Kidney Int 54: 2194-2206, 1998; and Kleinknecht C, et al., Kidney Int 47: S51-S54, 1995]. […]
(§7) After 6 weeks of PD, 4.25% Dianeal (registered trademark) was injected from the access port and a peritoneal equilibration test (60 minutes) was performed. […] Mesenterium was excised and assessed by light microscopy or immunohistochemistry.
The pentosidine content in the rat peritoneal membrane was assessed as follows, using HPLC in accordance with an already-reported method [Miyata T, et al., J. Am. […] The effluent was monitored using a fluorescence detector (RF-10A: Shimadzu, Tokyo) at an excitation-emission wavelength of 335/385 nm. […]

[3] = tested on: vessels in the peritoneal tissue; experiment: Number of vessels in mesenterium (von Willebrand factor staining, image analysis); format: in vivo, Sprague-Dawley rats; settings: uremic rats with PD plus pyridoxamine; uremia alone 1.87-fold, PD 5.83-fold
Text: as §4, §6, §5
The number of vessels was assessed in the sections stained for von Willebrand factor by image analysis using a WinROOF software (Mitani. Corporation, Tokyo). […]

[4] = Biochemical data and body weight of subtotally nephrectomized uremic rats undergoing peritoneal dialysis; format: in vivo; settings: 6-week PD with pyridoxamine 5 mg/l (Group 4), 21 weeks, mean ± SD
Text: as §4, §6, §7
(§8) The concentrations of glucose, creatinine, urea, total cholesterol, and triglyceride in plasma and peritoneal dialysate were measured with an autoanalyzer (Hitachi 736-60, Hitachi Co. Ltd., Tokyo).

[5] = tested on: peritoneal membrane of uremic rats; experiment: Functional analysis of peritoneal membrane by peritoneal equilibration test (PET); format: in vivo, Sprague-Dawley rats
Text: as §4
Uremic models were generated by 5/6 nephrectomy according to previous reports [Lameire N, et al. Kidney Int 54: 2194-2206, 1998; and Kleinknecht C, et al., Kidney Int 47: S51-S54, 1995]. The animals were provided free access to standard experimental rat chow (CE2: CLER Japan, Inc., Tokyo) containing 1.06% calcium, 0.9% phosphate, and 21% proteins, and tap water until the evening prior to slaughter. On the 13th week, Rat-o-Ports with a 13.5 cm catheter (Access Technologies, Norfolk Medical, Skokie, Ill., USA) were implanted into all the rats under anesthetization of isoflurane. The Rat-o-ports were implanted subcutaneously in the neck, after one week of which the peritoneal dialysis with 30 ml of dialysate was initiated twice a day. The PD was continued for 6 weeks [Zweers MM, et al., Nephrol Dial Transplant 16: 651-654, 2001]. Before the initiation of the peritoneal dialysis, four, five, and two rats had died respectively in Group 2, Group 3, and Group 4. […]
as §7, §8
The dialysate/plasma (D/P) ratio of Cr (A) and urea (B), and the absorption of glucose from the dialysate (D/D0) (C) were assessed, during a 60-minute exchange with 20 ml of 3.85% glucose dialysate, in control rats (Group 1), uremic rats without PD (Group 2), uremic rats undergoing peritoneal dialysis in the absence of pyridoxamine (Group 3), and uremic rats undergoing peritoneal dialysis in the presence of 5 mg/L pyridoxamine (Group 4). a: p<0.01 vs. Group 1. b: p<0.01 vs. Group 2. c: p<0.01 vs. Group 3. d: p<0.01 vs. Group 4. e: p<0.05 vs. Group 3. f: p<0.05 vs. Group 4.

Structure (SMILES): Cc1ncc(CO)c(CN)c1O [pyridoxamine]
- VEGF mRNA expression (ratio over β-actin) (VEGF): equivalent levels to those of uremic rats without PD
- FGF-2 mRNA expression (ratio over β-actin) (FGF-2): equivalent levels to those of uremic rats without PD
- VEGF, FGF-2, vWF, AGEs, and TGF-β1 stainings in capillaries of the mesenterium [1]: only faint stainings
- Slope of the regression line between pentosidine content and renal failure ([2]; Group 4, FIG. 5B, in words): lowered the slope of the regression line
- Tissue pentosidine content ([2]; Group 4 vs Group 3, FIG. 5A): significantly lowered
- Increase in vessel number (ratio to number of vessels of healthy control animals) [3]: 2.68 fold
- Body weight [4]: 419 ± 29 g
- Absorption rate of glucose from the dialysate (D/D0) ([5]; 6-week treatment, pyridoxamine 5 mg/L in dialysate, 60-minute PET, vs Group 3): significantly lowered
- Transport rate of small solutes (creatinine, urea) from the plasma (D/P ratio) ([5]; 6-week treatment, pyridoxamine 5 mg/L in dialysate, 60-minute PET, vs uremic PD rats without pyridoxamine (Group 3)): significantly lowered
- Slope of the regression line between increased permeability for small solutes (creatinine and glucose) and degree of renal failure ([5]; Group 4, FIGS. 3A and B): dramatically lowered
- Influence of uremia on membrane permeability ([5]; pyridoxamine treatment, uremic rats with PD): completely dissipated
